Data set [1] in a line: Lipophilicity, logD7.4 by HPLC method (Donovan and Pescatore). As to conditions: HPLC column ODP-50 4B (Shodex Asahipak 50 × 4.6 mm); pH 7.4, HPLC system 2, MeOH/PBS gradient. It counts as physicochemical. On the procedure:
The lipophilicity of all synthesized compounds was determined as logD7.4HPLC value (Table 1) using an HPLC method originally described by Donovan and Pescatore.
Column chromatography was performed using silica gel (mesh size 40–63 µm). Thin-layer chromatography (TLC) was performed on silica gel F-254 aluminum plates and visualized using UV (254 nm/366 nm). Analytical HPLC analysis was carried out with the following systems: (system 1) Agilent 1200 HPLC (Santa Clara, CA, USA; pump G1311A, autosampler G1329A, column oven G1316A, degasser G1322A, UV detector G1315D, γ detector Gabi Star (Raytest), Luna C18 column (Phenomenex, 250 × 4.6 mm), flow rate = 1 mL/min, isocratic eluent (MeCN/0.1% TFA in H2O 70/30 (v/v)); (system 2) Agilent 1100 HPLC (Santa Clara, CA, USA; binary pump G1312A, autosampler G1313A, column oven G1316A, degasser G1322A, UV detector G1314A, γ detector Gabi Star (Raytest, Straubenhardt, Germany); column ODP-50 4B (Shodex Asahipak 50 × 4.6 mm); eluent: MeOH/PBS (10 mM, pH 7.4) gradient t0 min 30/70 - t25 min 95/5 - t27 min 95/5 - t28 min 30/70 - t40 min 30/70, flow rate = 0.6 mL/min; (system 3) waters UPLC I-Class (Milford, MA, USA; binary gradient pump BSM, autosampler FTN, column manager CM, and diode array detector PDAeλ coupled to Waters Xevo TQ-S), column Aquity UPLC® BEH C18 column (waters, 100 × 2.1 mm, 1.7 µm, 130 Å), eluent: (A): 0.1% acetic acid in MeCN/MeOH 1/1/(B): 0.1% acetic acid in H2O; flow rate 0.4 mL/min), gradient: t0 min 45/55 - t0.5 min 45/55 - t5.5 min 95/5 - t7.0 min 95/5 - t8.0 min 45/55 – t8.5 min 45/55; (system 4) column (Kinetex C-18 (Phenomenex 50 × 2.1 mm, 1.7 µm, 100 Å), Shimadzu Nexera X2 UHPLC system (Kyoto, Japan; degasser DGU-20A3R and DGU-20A5R, pump LC-30AD, autosampler SIL-30AC, column oven CTO-20AC with two column switching valves FCV-14AH, diode array detector SPD-M30A, γ detector Gabi Star (Raytest, Straubenhardt, Germany), communication bus module CBM-20A), eluent: (A): MeCN, (B): 0.1% trifluoroacetic acid in H2O; flow rate 0.5 mL/min), gradient: t0 min 25/75 - t0.3 min 25/75 - t4.0 min 75/25 - t4.5 min 95/5 - t5.5 min 95/5 - t6.0 min 25/75 – t7.5 min 25/75. The products were monitored by an UV detector at 254 nm and purity of all compounds exceeded 95% as determined by analytical HPLC analysis (system 1 or system 3), unless otherwise stated. Semi-preparative HPLC was performed using the following system: column (C-18 Jupiter Proteo (Phenomenex 250 × 21.1 mm, 4 µm, 90 Å), Shimadzu prominence modular HPLC system (Kyoto, Japan; degasser DGU-20A5R, 2× pump LC-20AR, autosampler SIL-20AC HT, column oven CTO-20AC with column switching valve, diode array detector SPD-M20A, fluorescence detector RF-20A, and fraction collector FRC-10A, communication bus module CBM-20A), isocratic eluent 0.1% TFA in MeCN/0.1% TFA in H2O 70/30, flow rate = 10 mL/min.
The logD7.4HPLC value was determined as previously reported by us utilizing an HPLC method originally described by Donovan and Pescatore[18]. […]

In the next data set the target is T1, human COX-2 (Homo sapiens, UniProt P35354).
T1 construct: purchased Cayman Chemical 700100
T1 sequence (P35354 18-604): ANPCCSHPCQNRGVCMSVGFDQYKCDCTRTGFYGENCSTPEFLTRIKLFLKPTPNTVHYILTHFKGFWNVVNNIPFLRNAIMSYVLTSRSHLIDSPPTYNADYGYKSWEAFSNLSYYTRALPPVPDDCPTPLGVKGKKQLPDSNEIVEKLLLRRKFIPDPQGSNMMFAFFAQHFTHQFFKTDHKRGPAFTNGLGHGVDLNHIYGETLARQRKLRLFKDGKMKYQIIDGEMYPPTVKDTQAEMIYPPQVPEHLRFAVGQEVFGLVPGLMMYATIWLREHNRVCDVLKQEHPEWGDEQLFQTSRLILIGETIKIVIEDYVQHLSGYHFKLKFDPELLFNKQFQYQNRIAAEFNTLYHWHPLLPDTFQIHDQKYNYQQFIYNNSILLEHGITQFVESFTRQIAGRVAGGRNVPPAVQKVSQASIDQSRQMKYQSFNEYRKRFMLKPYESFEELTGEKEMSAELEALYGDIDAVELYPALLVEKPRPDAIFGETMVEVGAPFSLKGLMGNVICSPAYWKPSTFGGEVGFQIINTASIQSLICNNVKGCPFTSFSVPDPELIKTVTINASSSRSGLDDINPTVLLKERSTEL
Kind of data set: COX Fluorescent Inhibitor Screening Assay Kit (Cayman 700100), COX-2. The data set is classed as biochemical.

The next data set has as its target T2, ovine COX-1 (Ovis aries, UniProt P05979).
T2 construct: purchased Cayman Chemical 700100
T2 sequence (P05979 25-600): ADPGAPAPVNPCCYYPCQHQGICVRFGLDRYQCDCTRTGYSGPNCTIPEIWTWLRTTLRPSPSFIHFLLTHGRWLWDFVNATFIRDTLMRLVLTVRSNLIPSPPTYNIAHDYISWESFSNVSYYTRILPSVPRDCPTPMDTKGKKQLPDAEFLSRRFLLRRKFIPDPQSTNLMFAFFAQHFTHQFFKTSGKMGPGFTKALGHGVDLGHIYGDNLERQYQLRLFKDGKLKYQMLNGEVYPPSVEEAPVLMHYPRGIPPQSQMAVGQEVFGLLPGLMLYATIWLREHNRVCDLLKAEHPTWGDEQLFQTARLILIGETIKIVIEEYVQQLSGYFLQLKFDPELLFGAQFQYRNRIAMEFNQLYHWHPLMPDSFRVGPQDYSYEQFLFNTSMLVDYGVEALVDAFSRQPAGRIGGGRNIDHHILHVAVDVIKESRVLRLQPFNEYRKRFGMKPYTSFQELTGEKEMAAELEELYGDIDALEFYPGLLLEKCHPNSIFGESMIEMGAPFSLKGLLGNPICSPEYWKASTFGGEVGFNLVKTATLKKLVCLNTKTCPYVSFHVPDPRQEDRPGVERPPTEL
As to the kind of experiment: COX Fluorescent Inhibitor Screening Assay Kit (Cayman 700100), COX-1. It counts as biochemical. As to conditions: values marked ** : compounds were screened at a concentration of 100 µM.

On the set-up of data set [2]: method as in doi:10.1002/slct.201601618, PMID 12064545. As to conditions: reference substances for the HPLC logD method; cited from earlier work.
The conditions of data set [3]: cited from earlier work.
In a further data set the test system is hCOX-2. The conditions noted are these: read-out: IC50 hCOX-2; cited from earlier work.
The conditions of data set [4]: rat plasma, parecoxib leading to valdecoxib, cited from earlier work.

This is an account of results in article PMC6832141, “Synthesis and Cyclooxygenase Inhibition of Sulfonamide-Substituted (Dihydro)Pyrrolo[3,2,1-hi]indoles and Their Potential Prodrugs” (Molecules, 2019).

Structures are written as SMILES. Read-outs that look alike come from different tables or passages of the source. A value given as a limit tells only on which side of the number the result lay.

The term chromatographic logD denotes lipophilicity estimated from chromatographic retention. A high value points to higher lipophilicity. As usually defined, the melting point is the temperature, or range, at which the solid turns liquid. Usually IC50 stands for the concentration needed to halve the response being measured.

Compound `NS(=O)(=O)c1ccc(-c2c(-c3ccc(F)cc3)c3cccc4ccn2c43)cc1` [2d, 1-(4-Fluorophenyl)-2-[4-(sulfamoyl)phenyl]pyrrolo[3,2,1-hi]indole] displayed a melting point of 258 to 259 °C. In data set [1], the chromatographic logD amounted to 4.64. Besides, the “SI (selectivity index)” value on human COX-2 (SI = IC50 (COX-1)/IC50 (COX-2)) is over 1124. This compound also gave a half-maximal inhibitory concentration (IC50) on human COX-2 (human COX-2, values marked ** : compounds were screened at a concentration of 100 µM) of 0.089 µM. Moreover, the half-inhibitory concentration (IC50) against ovine COX-1 was over 100 µM.
Take `C[C@]12CCC(=O)C=C1CC[C@@H]1[C@@H]2[C@@H](O)C[C@@]2(C)[C@H]1CC[C@]2(O)C(=O)CO` [Hydrocortisone]: the “logD7.4 of HPLC references” value in data set [2] is on record as 1.65.
Take `CCC(=O)NS(=O)(=O)c1ccc(-c2c(-c3ccccc3)noc2C)cc1` [Parecoxib sodium]: in data set [3], the water solubility is given as over 50 mg/mL.
Regarding `CCC(=O)NS(=O)(=O)c1ccc(-c2c(-c3ccccc3)noc2C)cc1` [parecoxib], in the data set with hCOX-2, the IC50 was 20 µM. Besides, the “elimination half-life T1/2” value in data set [4] (ref 19) was 8.1 min; in data set [4] (ref 23), 41.4 min.
